Measurements reported in ChEMBL document CHEMBL1157539, “Thousands of chemical starting points for antimalarial lead identification” (Nature, 2010).

test system: Plasmodium falciparum; experiment: GSK_TCMDC: Inhibition of Plasmodium falciparum 3D7 in whole erythrocytes, using parasite LDH activity as an index of growth.; type: functional, organism-based; settings: Plasmodium falciparum, 3D7

Row | SMILES | XC50
1 | O=[N+]([O-])c1ccc(-c2ccc(C=NNc3nc(Nc4ccccc4)nc(Nc4ccccc4)n3)o2)cc1 | 1430 nM
2 | O=C(NCCCCN1CCC(c2ccc3c(c2OCC(O)c2ccc(Cl)cc2)CCCC3)CC1)c1ccc(-c2ccc(C(F)(F)F)cc2)cc1 (centres undefined) | 1040 nM
3 | Cc1cc2ncn(-c3nccc(NCc4ccc(F)c(C)c4)n3)c2cc1C | 990 nM
4 | NC(=O)c1ccc(C(=O)Nc2cccc(-c3csc(-c4nc5ccccc5[nH]4)c3)c2)cc1 | 351 nM
5 | CC(=O)Nc1ccc(C(=O)Nc2ccc(-c3cccc(-c4nc5ccccc5[nH]4)c3)cc2)cn1 | 238 nM
6 | CN(C)CCNCc1ccc(-c2ccc3c(Nc4ccc(Oc5ccccc5)cc4)ccnc3c2)o1 | 280 nM
7 | COc1ccc2ncc(Cl)c(CCN3C[C@H](CNCc4ccc5c(n4)NC(=O)CS5)[C@H](O)C3)c2n1 | 1000 nM
8 | CC[C@H]1CN2CC[C@@H]1C[C@H]2[C@H](O)c1cc(N2CCC(N3CCCCC3)CC2)nc2ccc(OC)cc12 | 267 nM
9 | O=S(=O)(NCCN1CCCC1)c1ccc(-c2ccc(CNC3Cc4ccccc4C3)cc2)cc1 | 664 nM
10 | CC(C)OC(=O)c1ccc(NC(=O)N[C@@H](Cc2ccc(O)cc2)C(=O)NC2CCC(CCN3C4CCC3c3ccccc34)CC2)cc1 (some centres undefined) | 829 nM
11 | COc1ccccc1CCN(C)CCN1CCC(NC(=O)c2ccc(-c3ccc(C(F)(F)F)cc3)cc2)CC1 | 1030 nM
12 | O=c1cc(N2CCNCC2)c(Cl)nn1Cc1ccc(NS(=O)(=O)c2ccc(Oc3ccccc3)cc2)cc1 | 574 nM
13 | O=C(NC1CC1)c1cnc(N2CCN(Cc3c(F)cccc3Cl)CC2)c(Cl)c1 | 905 nM
14 | CN1CCc2cc(NS(=O)(=O)c3ccc(-c4ccc(Cl)s4)cc3)c(N3CCCCC3)cc2CC1 | 727 nM
15 | Oc1ccc(CCNc2nc(NCCCOc3cccc(CN4CCCCC4)c3Cl)nc(N3CCNCC3)n2)cc1 | 1370 nM
16 | FC(F)(F)c1ccc(CNC2CCN(CC3CCCCC3)CC2)cc1 | 933 nM
17 | COc1ccccc1N1CCN(CCCCNC(=O)c2ccc(NC(=O)c3cc(Cl)cc(Cl)c3)cc2)CC1 | 458 nM
18 | Oc1ccccc1CN1CCCC(COC(c2ccc(F)cc2)c2ccc(F)cc2)C1 (centres undefined) | 775 nM
19 | N#Cc1ccc(N[C@@H](CC2CCCCC2)C(=O)N[C@@H]2CCCc3ccccc32)c2ccccc12 | 728 nM
20 | CCCNCc1ccc(-c2ccc(CN(Cc3cnc(C)cn3)C(=O)c3nn(-c4ccccc4)nc3C)cc2)nc1 | 419 nM
21 | Cc1nn(-c2ccccc2)nc1C(=O)NC1CCN(CCNC(=O)c2ccc(Cl)c(Cl)c2)CC1 | 868 nM
22 | CC(C)NC(C)(C)CN(Cc1ccc(-c2ccc(C(F)(F)F)cc2)cc1)C(=O)Cn1c(CCc2cccc(F)c2F)nc(=O)c2ccccc21 | 908 nM
23 | O=[N+]([O-])c1cccc(-c2nc(-c3ccc(Br)cc3)[nH]c2-c2ccc(Br)cc2)c1 | 759 nM
24 | CN(C)CCN1CCN(Cc2cccc(-c3csc(-c4nc5ccccc5[nH]4)c3)c2)CC1 | 398 nM

Row | SMILES | XC50
25 | CCNc1cc(C(=O)N[C@@H](Cc2ccccc2)[C@H](O)CNC2(CCC(C)C)CC2)cc(N2CCCCS2(=O)=O)c1 | 1080 nM
26 | COc1ccc(N2CCN(CCCOc3ccc(NC(=O)c4cc(Cl)cc(Cl)c4)cc3)CC2)c(OC)c1 | 897 nM
27 | Cc1cc(NC(=O)c2cc(Br)ccc2Cl)n(-c2nc(C)c(C)c(=O)[nH]2)n1 | 1130 nM
28 | c1ccc(C(c2cccs2)N2CCN(Cc3ccc(OCCCN4CCCCC4)cc3)CC2)cc1 (centres undefined) | 1230 nM
29 | CC(Oc1c(C2CCN(CCCCNC(=O)c3ccc(-c4ccc(C#N)cc4)cc3)CC2)ccc2c1CCCC2)C(N)=O (centres undefined) | 678 nM
30 | O=C(/C=C/c1ccccc1Cl)Nc1ccc(Br)c(OCCN2CCN(CCN3CCOCC3)CC2)c1 | 763 nM
31 | Cc1ccccc1CNc1noc(-c2sccc2Br)n1 | 380 nM
32 | CN1CCCC1CCNCc1cccc(-c2cnc(N(C)C3CCCCC3)nc2)c1 (centres undefined) | 853 nM
33 | CC(=O)c1cccc(NC(=O)C2c3ccccc3C(=O)N(CC(C)C)C2c2cccs2)c1 (centres undefined) | 590 nM
34 | CC(=O)Nc1cc(C(=O)Nc2cccc(-c3csc(-c4nc5ccccc5[nH]4)c3)c2)ccc1C | 465 nM
35 | O=C(COc1ccccc1Cl)N1CCc2cc3nccc(N4CCN5CCC[C@H]5C4)c3cc21 | 744 nM
36 | O=[N+]([O-])c1cccc(-c2nc3cc(C4=NC5CCCCC5N4)ccc3[nH]2)c1 (centres undefined) | 195 nM
37 | CN(C)Cc1cccc(-c2ccc(NC(=O)c3ccc4c(=O)n(C5CCCCC5)cnc4c3)cc2)c1 | 744 nM
38 | COc1ccc2ncc(Cl)c(CCN3CCC(NCc4ccc5c(n4)NC(=O)CS5)CC3)c2c1 | 590 nM
39 | O=C(Cn1cc(C(F)(F)F)cc(Cl)c1=O)N1CCN(S(=O)(=O)c2ccc(Cl)cc2)CC1 | 897 nM
40 | Cc1cc(NCCCOc2ccc(Cl)cc2)nc(NCc2ccccc2)n1 | 782 nM
41 | COc1cc(N(C)Cc2cnc3nc(N)nc(N)c3n2)cc(OC)c1OC | 435 nM
42 | CC1(C)OC[C@]2(C)[C@@H](CC[C@]3(C)C4=CC(=O)CCC4CC[C@@H]23)O1 (some centres undefined) | 282 nM
43 | O=C(c1ccc(O)c(-c2cc(Cl)cc(Cl)c2)c1)N(CCO)CCO | 908 nM
44 | COc1cc(C)nc2ccc(NC(=O)Nc3ccc([N+](=O)[O-])cc3C)cc12 | 602 nM
45 | O=C(Nc1ccc(-n2ccc(C(F)(F)F)n2)cc1)c1cccs1 | 1070 nM
46 | CCOc1ccc(N(CC)S(=O)(=O)c2cc(Br)cc3c2N(C(=O)C2CC2)CC3)cc1 | 134 nM
47 | Cn1cc(C2CCN(CCCCNC(=O)c3ccc(-c4ccc(C(F)(F)F)cc4)c(CO)c3)CC2)c2ccccc21 | 1000 nM
48 | FC(F)(F)c1ccc2[nH]c(-c3ccc(-c4cccc(CNCCc5ccncc5)c4)s3)nc2c1 | 117 nM

Row | SMILES | XC50
49 | Cc1ccc(C(=O)Nc2cccc([N+](=O)[O-])c2)cc1S(=O)(=O)N1CC(C)CC(C)C1 (centres undefined) | 794 nM
50 | O=C(c1cc(-c2cccs2)n[nH]1)N1CCN(S(=O)(=O)c2ccc(Cl)s2)CC1 | 868 nM
51 | CC(CCc1ccccc1)NCC(O)c1cccc(C(F)(F)F)c1 (centres undefined) | 709 nM
52 | COc1ccc2c(NN=Cc3cccc(F)c3)ccnc2c1 | 207 nM
53 | Cc1cc2nc(-c3ccc(/C=C/C(=O)NC4CCN(Cc5ccccc5)CC4)cc3)[nH]c2cc1C | 588 nM
54 | Cc1cc(N[C@@H](Cc2ccccc2)C(=O)NCCCOC(C)C)nc(NCCc2ccc(F)cc2)n1 | 934 nM
55 | CCc1ccc(CN(CCCOc2cccc(CC(=O)NCc3c[nH]cn3)c2)Cc2ccc(-n3ccnc3)cc2)cc1 | 979 nM
56 | Cn1c(Sc2ncnc3sccc23)nc2ccccc21 | 191 nM
57 | CCOC(=O)c1ccc(NC(=O)Nc2ccc(Cn3ncc(N4CCCNCC4)c(Cl)c3=O)cc2)cc1 | 443 nM
58 | CCCCN1CCN(CCCCNc2c3ccccc3nc3ccccc23)CC1 | 167 nM
59 | CN1CCN(c2ccnc3ccc(NC(=O)Nc4cccc5c(C#N)cccc45)cc23)CC1 | 1050 nM
60 | Cc1c(CC(=O)NCCC2CCN(CCCCCNC(=O)/C=C/c3ccc(Cl)c(Cl)c3)CC2)sc2ccc(Cl)cc12 | 880 nM
61 | Cc1cccn2c(=O)c3cc(C(=O)NC4CCCCC4)c(=N)n(CCCn4ccnc4)c3nc12 | 753 nM
62 | FC(F)(F)c1ccc2[nH]c(-c3ccc(-c4cccc(CN5CCN(CCN6CCOCC6)CC5)c4)cc3)nc2c1 | 160 nM
63 | COc1ccc2nc(N=C3NC4(c5ccccc5)NC(=Nc5nc6ccc(OC)cc6[nH]5)NC4(c4ccccc4)N3)[nH]c2c1 (centres undefined) | 204 nM
64 | COc1ccc2nccc([C@H](O)CN3CCC(NCc4nc5cccc(F)c5[nH]4)CC3)c2c1 | 705 nM
65 | O=C(/C=C/c1ccc(Cl)c(Cl)c1)NCCCCCN1CCC(CCNC(=O)C2(c3ccc(Cl)cc3)CC2)CC1 | 925 nM
66 | CCn1ccc2c(N3CCCS3(=O)=O)cc(C(=O)N[C@@H](Cc3ccccc3)[C@H](O)CNC(C)(C)CCCC(C)C)cc21 | 491 nM
67 | O=C(NC1CCCCC1)N(Cc1ccc(-c2cccc(CNCc3ccc4c(c3)OCO4)c2)cc1)C1CCN(Cc2ccccc2)CC1 | 688 nM
68 | CNCC(O)c1cc(Cl)c(Cl)cc1C (centres undefined) | 922 nM
69 | C=CCc1cc(Cc2cnc(N)nc2N)c2ccc(C)nc2c1O | 1040 nM
70 | C[C@H](NC(=O)c1c(CN2CCC(N3CCCCC3)CC2)c(-c2ccccc2)nc2cc(O)ccc12)C1CCCCC1 | 759 nM
71 | CN(C)CCNC(=O)c1cc2c(-c3ccc(Cl)cc3)nn(C)c2s1 | 665 nM
72 | NS(=O)(=O)c1cccc(-c2ccc3c(O)ncnc3c2)c1 | 946 nM

Row | SMILES | XC50
73 | CN1CCC(NCc2cccc(-c3nn(C)c4nc(NC5CCCC5)ncc34)c2)CC1 | 1020 nM
74 | COc1ccc(NC(=O)c2cc(-c3ccc(NC(C)=O)cc3)cnc2N)cc1 | 806 nM
75 | CCN(CCS(C)(=O)=O)Cc1ccc(-c2ccc3ncnc(Nc4ccc(OCc5cccc(F)c5)c(Cl)c4)c3c2)o1 | 608 nM
76 | CN(Cc1cccc(F)c1)C1CCN(c2cc(NC(=O)c3ccc(F)cc3)ccn2)C1 (centres undefined) | 1230 nM
77 | FC(F)(F)c1cc(CNCCCNc2nc3ccncc3[nH]2)ccc1Cl | 1010 nM
78 | CN(C)c1ccc(N2C(N)=NC(N)=NC23CCCC3)cc1 | 935 nM
79 | CC1CCCC(NCc2c(O)ccc3ccccc23)C1 (centres undefined) | 931 nM
80 | COc1cccc(NC(=O)c2cc(Br)cc(N3CCN(c4ccncc4)CC3)c2)c1 | 772 nM
81 | CC(=O)Nc1ccc2[nH]cc(C3CCN(CCC4CCN(C(=O)/C=C/c5ccc(Cl)c(Cl)c5)CC4)CC3)c2n1 | 518 nM
82 | CCN(CC1CCN(CC2(O)CCOCC2)CC1)c1cc(C)nc(Nc2ccc(Cl)cc2)n1 | 406 nM
83 | CN1CCc2ccc(NC(=O)Nc3cccc([N+](=O)[O-])c3)cc2C1 | 1100 nM
84 | CCOC(=O)CCCOc1cc(Cc2cnc(N)nc2N)cc(OC)c1OC | 239 nM
85 | CCN(CC)CC#Cc1ccc2[nH]c(C)c(Cl)c(=O)c2c1 | 702 nM
86 | CC(C)C[C@H](Nc1ccc(C#N)c2ccccc12)C(=O)N[C@@H]1CCCc2ccccc21 | 763 nM
87 | Cc1cc(Nc2cccc(C(F)(F)F)c2)nc2ccc(NC(=O)c3ccc(=O)[nH]c3)cc12 | 487 nM
88 | CC(=O)Nc1ccc(OCCCCN(Cc2ccccc2C(F)(F)F)c2ccc(C#N)c(C(F)(F)F)c2)cc1 | 1390 nM
89 | Cc1ccccc1C1CCN(C2CCC(NC(=O)/C=C/c3cc(F)ccc3F)CC2)CC1 (centres undefined) | 1040 nM
90 | Cc1noc(C)c1-c1cccc(CNCc2ccc(-c3cccc(-c4nc5cccc(C)c5[nH]4)c3)cc2)c1 | 215 nM
91 | Cc1ccc(CNC(=O)[C@H](CC(C)C)Nc2cc(C)nc(NCC3CCCCC3)n2)cc1 | 926 nM
92 | O=C(C=Cc1ccc(Cl)c(Cl)c1)NCCCCCN1CCC(CCNS(=O)(=O)c2ccc(F)cc2)CC1 | 1090 nM
93 | CC(C)CCNc1nc(NCCc2ccccc2)c2cc(O)ccc2n1 | 238 nM
94 | OCCN1CCN(Cc2cccc(-c3ccc(-c4nc5cc(C(F)(F)F)ccc5[nH]4)s3)c2)CC1 | 86.7 nM
